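Cells were grown in 96-well plates and exposed to each compound for 48 hours at five concentrations; endpoints were interpolated linearly between bracketing concentrations, or set to the highest concentration if not reached. At the TGI there is no net growth.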
Key:
Assay in all cases: NCI anticancer screen, dose series, 48 h
A498 renal = test system: A498 renal
TK-10 renal = test system: TK-10 renal
UO-31 renal = test system: UO-31 renal
UACC-257 melanoma = test system: UACC-257 melanoma
COLO 205 colon = test system: COLO 205 colon
K-562 leukemia = test system: K-562 leukemia
NCI-H226 lung = test system: NCI-H226 lung
HCT-15 colon = test system: HCT-15 colon
EKVX NSCLC = test system: EKVX NSCLC
SW-620 colon = test system: SW-620 colon
BT-549 breast = test system: BT-549 breast
SK-MEL-5 melanoma = test system: SK-MEL-5 melanoma
SNB-19 CNS = test system: SNB-19 CNS
U251 CNS = test system: U251 CNS
UACC-62 melanoma = test system: UACC-62 melanoma
ACHN renal = test system: ACHN renal
RPMI-8226 leukemia = test system: RPMI-8226 leukemia
CAKI-1 renal = test system: CAKI-1 renal
PC-3 prostate = test system: PC-3 prostate
SN12C renal = test system: SN12C renal

SMILES	TGI (A498 renal) [µM]	TGI (TK-10 renal) [µM]	TGI (UO-31 renal) [µM]	TGI (UACC-257 melanoma) [µM]	TGI (COLO 205 colon) [µM]	TGI (K-562 leukemia) [µM]	TGI (NCI-H226 lung) [µM]	TGI (HCT-15 colon) [µM]	TGI (EKVX NSCLC) [µM]	TGI (SW-620 colon) [µM]	TGI (BT-549 breast) [µM]	TGI (SK-MEL-5 melanoma) [µM]	TGI (SNB-19 CNS) [µM]	TGI (U251 CNS) [µM]	TGI (UACC-62 melanoma) [µM]	TGI (ACHN renal) [µM]	TGI (RPMI-8226 leukemia) [µM]	TGI (CAKI-1 renal) [µM]	TGI (PC-3 prostate) [µM]	TGI (SN12C renal) [µM]
C#CCOC(=O)c1ccccc1O	> 100	> 100	> 100	> 100	> 100	> 100	> 100	> 100	> 100	> 100	> 100	> 100	> 100	> 100	> 100	> 100	> 100	> 100	> 100	> 100
O=C1CCCCC/C1=C\c1ccc(F)cc1	> 100	> 100	> 100	> 100	> 100	> 100	> 100	> 100	> 100	> 100	> 100	> 100	> 100	> 100	> 100	> 100	> 100	> 100	> 100	> 100
O=C1/C(=C\c2ccc(Cl)cc2Cl)Sc2scc(-c3cccc([N+](=O)[O-])c3)[n+]21	> 100	13.3	13.8	18.3	2.56	> 100	38.2	4.87	14.3	> 32.2	18.1	7.93	32.5	44.1	21.6	12.6	26.9	8.21	33.1	18.4
CC1(c2ccc(F)cc2)CC(c2ccc(F)cc2)=C(C#N)C(=C(C#N)C#N)N1 (stereo not given)	35.8	32.2	32	28.9	27.9	38.1	82.1	31.7	31.5	62.1	53	28.5	35.1	31.5	28.1	30.2	> 100	30.2	31.4	34.5
COc1cc(C2c3cc4c(cc3OC(NC3CCCCC3)C2C)OCO4)cc(OC)c1OC (stereo not given)	25	> 68.8	32.2	> 100	0.825	> 21.5	15.8	> 45.4	> 100	> 55.7	26.4	1.93	> 100	23.9	43.2	40.2	41.8	2.75	> 28.8	> 41.9
COc1ccccc1C1SCC(=O)N1c1ccc(-n2c(-c3ccccc3)nc3ccccc3c2=O)cc1 (stereo not given)	> 100	> 100	> 100	> 100	> 100	> 100	> 100	> 100	> 100	> 100	> 100	> 100	> 100	> 100	> 100	> 100	> 100	> 100	> 100	> 100
O=c1[nH]nc(Cc2ccccc2)n1/N=C/c1c(O)ccc2ccccc12	47.4	> 100	> 100	> 100	> 100	64.4	73.6	> 100	57.8	> 100	> 100	48.7	46.5	38.6	> 100	84.5	82.5	88.8	64	> 100
CC(C)(C)OC(=O)N(O)[C@@H]1C=C[C@H](n2cnc3c(N)ncnc32)C1	> 100	> 100	> 100	> 100	> 100	> 100	96.9	> 100	> 100	> 100	> 100	> 100	> 100	> 100	> 100	> 100	> 100	> 100	> 100	> 100
CC1Cc2c(Br)nc(N)nc2NC1=O (stereo not given)	> 100	> 100	> 100	> 100	> 100	> 100	> 100	> 100	> 100	> 100	> 100	> 100	> 100	> 100	> 100	> 100	> 100	> 100	> 100	> 100
C=CC(Cl)(CBr)CCC(Br)=C(C)C (stereo not given)	> 100	58.8	37.4	59.5	33.4	> 100	> 100	35.9	> 100	29.2	44.4	33.7	> 100	30.5	36	49.7	54.5	21.2	52.7	33
CC1=NN(c2nc(N)nc(CCl)n2)CC1	> 100	> 100	20.5	> 100	36.3	32.7	> 100	43.6	35.8	76.4	> 100	32.2	> 100	> 100	31	38.5	> 100	21.4	> 100	> 100

Reference: PubChem BioAssay (NCI)
